Experimental data reported in PubChem BioAssay (NCI).
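Interpolation was linear, between the two tested concentrations surrounding the appropriate level; five concentrations were tested over 48 hours in 96-well plates. At the TGI there is no net growth.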

Tests used:
Assay in all cases: NCI anticancer screen, dose series, 48 h
786-0 renal = test system: 786-0 renal
A498 renal = test system: A498 renal
A549 NSCLC = test system: A549 NSCLC
ACHN renal = test system: ACHN renal
BT-549 breast = test system: BT-549 breast
CAKI-1 renal = test system: CAKI-1 renal
CCRF-CEM leukemia = test system: CCRF-CEM leukemia
COLO 205 colon = test system: COLO 205 colon
DU-145 prostate = test system: DU-145 prostate
EKVX NSCLC = test system: EKVX NSCLC
HCC-2998 colon = test system: HCC-2998 colon
HCT-116 colon = test system: HCT-116 colon
HCT-15 colon = test system: HCT-15 colon
HL-60(TB) leukemia = test system: HL-60(TB) leukemia
HOP-62 NSCLC = test system: HOP-62 NSCLC
HOP-92 NSCLC = test system: HOP-92 NSCLC
HS 578T breast = test system: HS 578T breast
HT29 colon = test system: HT29 colon
IGROV1 ovarian = test system: IGROV1 ovarian
K-562 leukemia = test system: K-562 leukemia
KM12 colon = test system: KM12 colon
LOX IMVI melanoma = test system: LOX IMVI melanoma
M14 melanoma = test system: M14 melanoma
MALME-3M melanoma = test system: MALME-3M melanoma
MCF7 breast = test system: MCF7 breast
MDA-MB-231 breast = test system: MDA-MB-231 breast
MDA-MB-435 = test system: MDA-MB-435
MDA-N = test system: MDA-N
MOLT-4 leukemia = test system: MOLT-4 leukemia
NCI-H226 lung = test system: NCI-H226 lung
NCI-H23 lung = test system: NCI-H23 lung
NCI-H460 lung = test system: NCI-H460 lung
NCI-H522 lung = test system: NCI-H522 lung
NCI/ADR-RES ovarian = test system: NCI/ADR-RES ovarian
OVCAR-3 ovarian = test system: OVCAR-3 ovarian
OVCAR-4 ovarian = test system: OVCAR-4 ovarian
OVCAR-5 ovarian = test system: OVCAR-5 ovarian
OVCAR-8 ovarian = test system: OVCAR-8 ovarian
PC-3 prostate = test system: PC-3 prostate
RPMI-8226 leukemia = test system: RPMI-8226 leukemia
RXF 393 renal = test system: RXF 393 renal
SF-268 CNS = test system: SF-268 CNS
SF-295 CNS = test system: SF-295 CNS
SF-539 CNS = test system: SF-539 CNS
SK-MEL-2 melanoma = test system: SK-MEL-2 melanoma
SK-MEL-28 melanoma = test system: SK-MEL-28 melanoma
SK-MEL-5 melanoma = test system: SK-MEL-5 melanoma
SK-OV-3 ovarian = test system: SK-OV-3 ovarian
SN12C renal = test system: SN12C renal
SNB-19 CNS = test system: SNB-19 CNS
SNB-75 CNS = test system: SNB-75 CNS
SR leukemia = test system: SR leukemia
SW-620 colon = test system: SW-620 colon
T-47D breast = test system: T-47D breast
TK-10 renal = test system: TK-10 renal
U251 CNS = test system: U251 CNS
UACC-257 melanoma = test system: UACC-257 melanoma
UACC-62 melanoma = test system: UACC-62 melanoma
UO-31 renal = test system: UO-31 renal

Which TGI (786-0 renal) does the source give for `N#Cc1c2c(c(Nc3ccc(F)cc3)n3c1nc1ccccc13)CCCC2` here?
The TGI was over 100 µM.

And the TGI (A498 renal)?
Its TGI is over 100 µM.

What about the TGI (A549 NSCLC) of the same compound?
The TGI was over 100 µM.

What about the TGI (ACHN renal) of the same compound?
The TGI was over 100 µM.

And the TGI (BT-549 breast)?
Its TGI is over 100 µM.

And the TGI (CAKI-1 renal)?
Its TGI is over 100 µM.

What about the TGI (CCRF-CEM leukemia) of the same compound?
Its TGI is over 100 µM.

What about the TGI (COLO 205 colon) of the same compound?
The TGI was over 100 µM.

And the TGI (DU-145 prostate)?
The TGI was over 100 µM.

What about the TGI (EKVX NSCLC) of the same compound?
Its TGI is over 100 µM.

And the TGI (HCC-2998 colon)?
The TGI was over 100 µM.

What about the TGI (HCT-116 colon) of the same compound?
Its TGI is over 100 µM.

And the TGI (HCT-15 colon)?
Its TGI is over 100 µM.

And the TGI (HL-60(TB) leukemia)?
Its TGI is over 100 µM.

What about the TGI (HOP-62 NSCLC) of the same compound?
The TGI was over 100 µM.

What about the TGI (HOP-92 NSCLC) of the same compound?
The TGI was over 100 µM.

And the TGI (HS 578T breast)?
Its TGI is over 100 µM.

And the TGI (HT29 colon)?
Its TGI is over 100 µM.

What about the TGI (IGROV1 ovarian) of the same compound?
Its TGI is over 100 µM.

What about the TGI (K-562 leukemia) of the same compound?
The TGI was over 100 µM.

What about the TGI (KM12 colon) of the same compound?
Its TGI is over 100 µM.

And the TGI (LOX IMVI melanoma)?
Its TGI is over 100 µM.

What about the TGI (M14 melanoma) of the same compound?
The TGI was over 100 µM.

What about the TGI (MALME-3M melanoma) of the same compound?
Its TGI is over 100 µM.

And the TGI (MCF7 breast)?
The TGI was over 100 µM.

What about the TGI (MDA-MB-231 breast) of the same compound?
The TGI was over 100 µM.

And the TGI (MDA-MB-435)?
The TGI was over 100 µM.

And the TGI (MDA-N)?
Its TGI is over 100 µM.

What about the TGI (MOLT-4 leukemia) of the same compound?
Its TGI is over 100 µM.

What about the TGI (NCI-H226 lung) of the same compound?
The TGI was over 100 µM.

What about the TGI (NCI-H23 lung) of the same compound?
The TGI was over 100 µM.

What about the TGI (NCI-H460 lung) of the same compound?
Its TGI is over 100 µM.

And the TGI (NCI-H522 lung)?
The TGI was over 100 µM.

And the TGI (NCI/ADR-RES ovarian)?
Its TGI is over 100 µM.

What about the TGI (OVCAR-3 ovarian) of the same compound?
Its TGI is over 100 µM.

What about the TGI (OVCAR-4 ovarian) of the same compound?
The TGI was over 100 µM.

What about the TGI (OVCAR-5 ovarian) of the same compound?
The TGI was over 100 µM.

And the TGI (OVCAR-8 ovarian)?
The TGI was over 100 µM.

And the TGI (PC-3 prostate)?
The TGI was over 100 µM.

What about the TGI (RPMI-8226 leukemia) of the same compound?
Its TGI is over 100 µM.

What about the TGI (RXF 393 renal) of the same compound?
The TGI was over 86 µM.

And the TGI (SF-268 CNS)?
Its TGI is over 100 µM.

And the TGI (SF-295 CNS)?
Its TGI is over 100 µM.

What about the TGI (SF-539 CNS) of the same compound?
Its TGI is over 100 µM.

What about the TGI (SK-MEL-2 melanoma) of the same compound?
The TGI was over 100 µM.

And the TGI (SK-MEL-28 melanoma)?
Its TGI is over 100 µM.

And the TGI (SK-MEL-5 melanoma)?
Its TGI is over 100 µM.

And the TGI (SK-OV-3 ovarian)?
The TGI was over 100 µM.

And the TGI (SN12C renal)?
Its TGI is over 100 µM.

What about the TGI (SNB-19 CNS) of the same compound?
Its TGI is over 85.2 µM.

What about the TGI (SNB-75 CNS) of the same compound?
Its TGI is over 100 µM.

And the TGI (SR leukemia)?
Its TGI is over 100 µM.

And the TGI (SW-620 colon)?
The TGI was over 100 µM.

What about the TGI (T-47D breast) of the same compound?
Its TGI is over 100 µM.

What about the TGI (TK-10 renal) of the same compound?
The TGI was over 100 µM.

What about the TGI (U251 CNS) of the same compound?
The TGI was over 100 µM.

What about the TGI (UACC-257 melanoma) of the same compound?
Its TGI is over 100 µM.

And the TGI (UACC-62 melanoma)?
The TGI was over 100 µM.

And the TGI (UO-31 renal)?
Its TGI is over 100 µM.
